Reference: PubChem BioAssay AID1845197 (Molecular Pharmacology Branch, DTP, NCI, 2023)

Tested on: 349418-098-R tumor spheroid viability
Experiment: Anticancer human tumor 349418-098-R patient-derived lung adenocarcinoma cell line growth inhibition
Conditions: spheroids with HUVEC and MSC; for IC50: curve of first compound; for viability, T/C: stronger effect = lower value
In short: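 Complex spheroids of malignant cells with endothelial cells and mesenchymal stem cells; agents alone or combined, from near clinical Cmax (or 10 microM if unknown) down in half-log steps, 0.25% DMSO final.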

[1] = second compound 30 pM, first compound 0.00949 µM
[2] = second compound 30 pM, first compound 0.03 µM
[3] = second compound 30 pM, first compound 0.0949 µM
[4] = second compound 30 pM, first compound 0.3 µM
[5] = second compound 30 pM, first compound 0.949 µM
[6] = second compound 30 pM, first compound 3 µM
[7] = second compound 94.9 pM, first compound 0.00949 µM
[8] = second compound 94.9 pM, first compound 0.03 µM
[9] = second compound 94.9 pM, first compound 0.0949 µM
[10] = second compound 94.9 pM, first compound 0.3 µM
[11] = second compound 94.9 pM, first compound 0.949 µM
[12] = second compound 94.9 pM, first compound 3 µM
[13] = second compound 0.0003 µM, first compound 0.00949 µM
[14] = second compound 0.0003 µM, first compound 0.03 µM
[15] = second compound 0.0003 µM, first compound 0.0949 µM
[16] = second compound 0.0003 µM, first compound 0.3 µM
[17] = second compound 0.0003 µM, first compound 0.949 µM
[18] = second compound 0.0003 µM, first compound 3 µM
[19] = second compound 0.000949 µM, first compound 0.00949 µM
[20] = second compound 0.000949 µM, first compound 0.03 µM
[21] = second compound 0.000949 µM, first compound 0.0949 µM
[22] = second compound 0.000949 µM, first compound 0.3 µM
[23] = second compound 0.000949 µM, first compound 0.949 µM
[24] = second compound 0.000949 µM, first compound 3 µM
[25] = second compound 0.003 µM, first compound 0.00949 µM
[26] = second compound 0.003 µM, first compound 0.03 µM
[27] = second compound 0.003 µM, first compound 0.0949 µM
[28] = second compound 0.003 µM, first compound 0.3 µM
[29] = second compound 0.003 µM, first compound 0.949 µM
[30] = second compound 0.003 µM, first compound 3 µM
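Further: spheroids exposed to compound for 7 days before measurement.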
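Wherever viability, T/C is given: percent of vehicle control viability with 100% = DMSO-treated spheroids.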

Compound	IC50 (second compound 30 pM)	IC50 (second compound 94.9 pM)	IC50 (second compound 0.0003 µM)	IC50 (second compound 0.000949 µM)	IC50 (second compound 0.003 µM)	viability, T/C [1]	viability, T/C [2]	viability, T/C [3]	viability, T/C [4]	viability, T/C [5]	viability, T/C [6]	viability, T/C [7]	viability, T/C [8]	viability, T/C [9]	viability, T/C [10]	viability, T/C [11]	viability, T/C [12]	viability, T/C [13]	viability, T/C [14]	viability, T/C [15]	further results
CNCc1ccc(-c2cc(-c3nc(-c4ccc(S(=O)(=O)C(C)C)cc4)cnc3N)on2)cc1 + COc1cc2c(cc1O)CCNC21CSC2c3c(OC(C)=O)c(C)c4c(c3C(COC1=O)N1C(O)C3Cc5cc(C)c(OC)c(O)c5C(C21)N3C)OCO4	448 nM	202 nM	162 nM	< 9.49 nM	< 9.49 nM	105%	91.3%	87.8%	69.6%	14.5%	5.77%	97%	97.5%	85.4%	31.1%	10.2%	3.32%	91.6%	93.5%	79.5%	viability, T/C [16]: 15.6%; viability, T/C [17]: 5.43%; viability, T/C [18]: 2.26%; viability, T/C [19]: 0.44%; viability, T/C [20]: 0.78%; viability, T/C [21]: 0.51%; viability, T/C [22]: 0.68%; viability, T/C [23]: 0.41%; viability, T/C [24]: 0.11%; viability, T/C [25]: 1.46%; viability, T/C [26]: 1.27%; viability, T/C [27]: 0.93%; viability, T/C [28]: 1.07%; viability, T/C [29]: 1.05%; viability, T/C [30]: 0.22%
Cc1sc2c(c1C)C(c1ccc(Cl)cc1)=NC(CC(=O)Nc1ccc(O)cc1)c1nnc(C)n1-2 (stereo not given) + COc1cc2c(cc1O)CCNC21CSC2c3c(OC(C)=O)c(C)c4c(c3C(COC1=O)N1C(O)C3Cc5cc(C)c(OC)c(O)c5C(C21)N3C)OCO4	142 nM	104 nM	39.2 nM	< 9.49 nM	< 9.49 nM	97.4%	101%	63.3%	22.3%	3.92%	0.75%	99.1%	104%	53.6%	7.33%	1.23%	0.57%	87.3%	56%	28.3%	viability, T/C [16]: 4.02%; viability, T/C [17]: 0.43%; viability, T/C [18]: 0.38%; viability, T/C [19]: 0.25%; viability, T/C [20]: 0.35%; viability, T/C [21]: 0.19%; viability, T/C [22]: 0.18%; viability, T/C [23]: 0.18%; viability, T/C [24]: 0.57%; viability, T/C [25]: 1.49%; viability, T/C [26]: 1.62%; viability, T/C [27]: 1.47%; viability, T/C [28]: 1.59%; viability, T/C [29]: 2.52%; viability, T/C [30]: 3.49%
Cn1ncnc1[C@H]1c2n[nH]c(=O)c3cc(F)cc(c23)N[C@@H]1c1ccc(F)cc1 + COc1cc2c(cc1O)CCNC21CSC2c3c(OC(C)=O)c(C)c4c(c3C(COC1=O)N1C(O)C3Cc5cc(C)c(OC)c(O)c5C(C21)N3C)OCO4	1640 nM	956 nM	107 nM	< 9.49 nM	< 9.49 nM	87.2%	97.2%	88.8%	93.5%	86.8%	9.75%	93.2%	89.6%	85.6%	94.8%	50.3%	4.92%	66.4%	68.5%	47.8%	viability, T/C [16]: 34.9%; viability, T/C [17]: 11.5%; viability, T/C [18]: 2.39%; viability, T/C [19]: 0.87%; viability, T/C [20]: 0.43%; viability, T/C [21]: 0.53%; viability, T/C [22]: 0.21%; viability, T/C [23]: 0.13%; viability, T/C [24]: 0.19%; viability, T/C [25]: 1.57%; viability, T/C [26]: 1.54%; viability, T/C [27]: 1.41%; viability, T/C [28]: 1.35%; viability, T/C [29]: 2.21%; viability, T/C [30]: 3.32%
